Data from patent publication US5814610A, “Osteogenic growth oligopeptides and pharmaceutical compositions containing them” (Yissum Research Development Company of the Hebrew …, priority 1993, dated 1998).
No end group written: not given here.

How the values were obtained:
[1] = tested on: osteoblastic MC3T3E1 cells; assay: Proliferative activity: osteoblastic MC3T3E1 cell number in vitro; type: cell-based; conditions: for Proliferative effect on cell number (magnitude, compared with positive sOGP control): MC3T3E1 cells
NIH 3T3 fibroblasts = assay: Proliferative activity: fibroblastic NIH 3T3 cell number in vitro; type: cell-based; conditions: NIH 3T3 cells
[2] = Kharchenko et al.; cited from earlier work

Substance | Proliferative effect on cell number (magnitude, compared with positive sOGP control) [1] | Proliferative activity, Percent Activity of Full Length Peptide [OGP(1-14)], Mean ([1]; MC3T3 E1 cells, mean of experiments) [%] | Proliferative effect on cell number (magnitude, compared with positive sOGP control) (NIH 3T3 fibroblasts) | Proliferative activity, Percent Activity of Full Length Peptide [OGP(1-14)], Mean (NIH 3T3 fibroblasts; mean of experiments) [%] | Peptide concentration of peak proliferative activity ([1]; MC3T3E1 cell number) | Analgesic and opioid activity [2]
Gly--Gly [OGP(13-14)] | did not affect | 0 | did not affect | 0 |  | 
Ac-MYGFGG [Ac-Met^0 [OGP(10-14)], Ac--Met--Tyr--Gly--Phe--Gly--Gly] | closely similar to that of positive sOGP controls |  | closely similar to that of positive sOGP controls |  | 10^-13 M | 
Tyr--Gly--Phe--Gly--Gly (YGFGG; printed: Tyr--Gly--Phe--Gly--Gly) [OGP(10-14)] |  |  |  |  |  | analgesic and opiod activity
